Laboratory results: US5462957A, “Azole derivatives, pharmaceutical compositions containing the same, and method for treating mycosis and estrogen-dependent diseases” (Kureha Chemical Industry Co., Ltd., priority 1992, dated 1995)
Read-outs that look alike come from different tables or passages of the source.

What was measured:
[1] = in vivo; settings: mouse, po
Protocol: Acute toxicity by oral route was investigated using ICR-JCL mice.
The compounds of the present invention, Compound Nos. 1, 2, 13, 14, 33, 34, 41, 42, 47, 48, 53, 54, 67, and 68, were dissolved or dispersed in polyethylene glycol 200 or physiological saline. The solution or suspension was given in a prescribed amount by means of a syringe or a stomach tube.

[2] = tested on: Candida albicans (IFO 1060); assay: Antimycotic activity: survival of mice infected with Candida albicans; assay type: in vivo; settings: IFO1060, 480 h, female ICR mice, oral, 100 mg/kg day for 5 consecutive days, observed for 20 days, control and solvent control 20, read-out: Survival Rate (%)
Protocol: The evaluation of antimycotic activity can be carried out by administering a dosage of the compound in […] that have been inoculated with a strain of Candida albicans, preferably orally, and observing the mortality of the inoculated mice for 20 days.
The survival rate was calculated from the mean survival days.
Five-week-old female ICR mice of 10 animals per group were infected with Candida albicans (IFO 1060) in an amount of 4.8×10^6 cfu (colony forming unit)/mouse through a tail vein.
After one hour following the introduction of the infection, a solution of each compound (see Table 8 below) in polyethylene glycol 200 was orally administered for 5 consecutive days in the amount of 100 mg/kg day.
In Table 8, the solvent group was administered only with polyethylene glycol.

[3] = target: T1, aromatase (Homo sapiens, UniProt P11511); assay: Aromatase inhibitory activity (human placenta microsomes, [19-14C]4-androstene-3,17-dione); assay type: biochemical
T1 construct: human placenta microsomes (a protein concentration of 0.1 mg/ml); from tissue; host or cells: human placenta microsomes
T1 sequence (P11511 1-503): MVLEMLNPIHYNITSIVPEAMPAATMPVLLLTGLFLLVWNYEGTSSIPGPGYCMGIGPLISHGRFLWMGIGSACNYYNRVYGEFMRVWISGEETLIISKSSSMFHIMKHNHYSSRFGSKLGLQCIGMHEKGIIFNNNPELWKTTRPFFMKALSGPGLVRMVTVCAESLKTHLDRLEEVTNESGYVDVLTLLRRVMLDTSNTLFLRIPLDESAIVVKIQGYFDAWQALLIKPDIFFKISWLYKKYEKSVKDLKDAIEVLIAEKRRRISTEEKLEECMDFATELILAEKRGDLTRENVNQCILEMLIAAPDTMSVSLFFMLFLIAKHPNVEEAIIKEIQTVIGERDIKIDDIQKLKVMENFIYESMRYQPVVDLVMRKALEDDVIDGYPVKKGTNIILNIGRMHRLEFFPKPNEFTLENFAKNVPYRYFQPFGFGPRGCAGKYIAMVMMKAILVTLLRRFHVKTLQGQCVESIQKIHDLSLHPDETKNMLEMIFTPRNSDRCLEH
Protocol: The aromatase enzyme-inhibitory activity was determined in the manner described by Covey, D. F., Biochem. Biophys. Res. Commu., 157 (1), 81-86, 1988. More specifically, the aromatase-inhibitory activity of a compound of formula (I) was evaluated in terms of the concentration (IC50) of the compound causing 50% inhibition of the aromatase activity.
Aromatase activity was determined in the manner described by Covey, D. F., Biochem. Biophys. Res. Commun. 157 (1), 81-86 (1988).
Aromatase inhibitory activity of the compounds was evaluated in the 50% aromarase-inhibitory concentration (IC50). Microsomes of human-placenta and [19-^14 C]4-androstene-3,17 dione were used as an aromatase source and a substrate, respectively.
The radioactivity of H^14 COOH which was released into a reaction mixture as a result of aromatization was measured to evaluate the aromatase activity.
The aromatase inhibitory activity and the concentration of each compound was depicted in a graph, from which the IC50 was determined.
[19-^14 C]4-Androstene-3,17-dione (1×10^-6 M, 2 KBq/ml), human placenta microsomes (a protein concentration of 0.1 mg/ml), coenzyme NADP (2×10^-3 M), glucose-6-phosphoric acid (4×10^-3 M), and glucose-6-phosphoric acid dehydrogenase (4U/ml) were added to a phosphoric acid buffer solution (67 mM, pH 7.2, 0.5 ml) and reacted at 37° C. for 30 minutes while the mixture was being shaken.
The test compound dissolved in DMSO was added to the reaction mixture and the final concentration of DMSO was in the range of 0.1 to 0.55% by volume per volume.
Chloroform (5 ml) was then added to the reaction mixtures to cease the reaction. The H^14 COOH, which had been released into a reaction mixture, was recovered in a water layer by stirring the reaction mixture. The water layer (0.1 ml) was added to a liquid scintillation cocktail (Atomlight, Dupont, 4 ml) to measure its radioactivity.
The positive control is 4-hydroxyandrostenedione.

[4] = tested on: spontaneous mastocarcinoma; assay: Antitumor effects: tumor growth inhibition in rats with mastocarcinoma; assay type: in vivo, Sprague-Dawley rats; settings: Rattus norvegicus, ip, read-out: Tumor growth inhibition rate (%)
Protocol: Fifty-day-old female Sprague-Dawley rats were orally given 7,12-dimethylbenzanthracene (15 mg/kg) and observed for two months. Those rats developing spontaneous mastocarcinoma were selected and divided into groups each consisting of 15 animals: groups each of which is to be given a different compound of the present invention; a group to be given a control compound; and a control group to be given a simple physiological saline solution. Each group was intraperitoneally given the corresponding physiological saline solution or dispersion in an amount of 25 mg/kg daily for 20 consecutive days. Five days after the last administration, the rats were sacrificed to weigh the tumors. The mean tumor weight (T) of the 15 rats of each of the groups which had been given compounds of the present invention or the control compound, and the mean tumor weight (C) of the 15 rats of the control group which had been given a simple physiological saline solution were calculated. The tumor growth inhibition rate of each group was calculated on the basis of the following formula:
Tumor Growth Inhibition Rate (%) = {1-T/C)} × 100. Positive control is 4-hydroxyandrostenedione.

[5] = female Sprague-Dawley rats given 7,12-dimethylbenzanthracene, intraperitoneal, 25 mg/kg daily for 20 consecutive days, mean tumor weight vs saline control
[6] = human placenta microsomes, substrate 1×10^-6 M, pH 7.2, 37° C., 30 minutes, read-out: IC50

CC1OCC(Cc2ccc(F)cc2)C1(O)Cn1cncn1 (stereo not drawn) [Compound No. 1, 4-(4-fluorobenzyl)-3-hydroxy-2-methyl-3-(1H-1,2,4-triazol-1-ylmethyl) tetrahydrofuran]
LD50 at 168 h [1]: > 1000 mg/kg
responders at 100 mg/kg [2]: 40%
IC50 [3]: 6000 nM
inhibition in vivo at 25 mg/kg [4, 5]: 60%

CC1(C)OCC(Cc2ccc(F)cc2)C1(O)Cn1cncn1 (stereo not drawn) [Compound No. 13, 4-(4-fluorobenzyl)-3-hydroxy-2,2-dimethyl-3 (1H-1,2,4-triazole-1-ylmethyl) tetrahydrofuran]
LD50 at 168 h [1]: > 1000 mg/kg
responders at 100 mg/kg [2]: 55%
IC50 [3]: 5300 nM
inhibition in vivo at 25 mg/kg [4, 5]: 58%

CC1(C)OCC(Cc2ccc(F)cc2)C1(O)Cn1ccnc1 (stereo not drawn) [Compound No. 14, 4-(4-fluorobenzyl)-3-hydroxy-3-(imidazol-1-ylmethyl)-2,2-dimethyltetrahydrofuran]
LD50 at 168 h [1]: > 1000 mg/kg
responders at 100 mg/kg [2]: 70%
IC50 [3]: 480 nM
inhibition in vivo at 25 mg/kg [4, 5]: 63%

CC1(C)OCC(Cc2ccc(Cl)cc2)C1(O)Cn1cncn1 (stereo not drawn) [Compound No. 33, 4-(4-chlorobenzyl)-3-hydroxy-2,2-dimethyl-3-(1H-1,2,4-triazol-1-ylmethyl) tetrahydrofuran]
LD50 at 168 h [1]: > 1000 mg/kg
responders at 100 mg/kg [2]: 60%
IC50 [3]: 7000 nM
inhibition in vivo at 25 mg/kg [4, 5]: 65%

CC1(C)OCC(Cc2ccc(Cl)cc2)C1(O)Cn1ccnc1 (stereo not drawn) [Compound No. 34, 4-(4-chlorobenzyl)-3-hydroxy-3-(1H-imidazol-l-ylmethyl) -2,2-dimethyltetrahydrofuran]
LD50 at 168 h [1]: > 1000 mg/kg
responders at 100 mg/kg [2]: 80%
IC50 [3]: 500 nM
inhibition in vivo at 25 mg/kg [4, 5]: 80%

CC1(C)OCC(Cc2ccc(C#N)cc2)C1(O)Cn1cncn1 (stereo not drawn) [Compound No. 53]
LD50 at 168 h [1]: > 1000 mg/kg
responders at 100 mg/kg [2]: 42%
IC50 [3]: 1200 nM
inhibition in vivo at 25 mg/kg [4, 5]: 60%

CC1(C)OCC(Cc2ccc(C#N)cc2)C1(O)Cn1ccnc1 (stereo not drawn) [Compound No. 54]
LD50 at 168 h [1]: > 1000 mg/kg
responders at 100 mg/kg [2]: 40%
IC50 [3, 6]: 1000 nM
inhibition in vivo at 25 mg/kg [4, 5]: 73%

CC1(C)OCC(Cc2ccccc2-c2ccccc2)C1(O)Cn1cncn1 (stereo not drawn) [Compound No. 67]
LD50 at 168 h [1]: > 1000 mg/kg
responders at 100 mg/kg [2]: 53%
IC50 [3]: 4700 nM
inhibition in vivo at 25 mg/kg [4, 5]: 74%

CC1(C)OCC(Cc2ccccc2-c2ccccc2)C1(O)Cn1ccnc1 (stereo not drawn) [Compound No. 68]
LD50 at 168 h [1]: > 1000 mg/kg
responders at 100 mg/kg [2]: 62%
IC50 [3, 6]: 350 nM
inhibition in vivo at 25 mg/kg [4, 5]: 85%

C[C@]12CCC(=O)C(O)=C1CC[C@@H]1[C@@H]2CC[C@]2(C)C(=O)CC[C@@H]12 [Positive Control, 4-hydroxyandrostenedione, reference compound]
inhibition in vivo at 25 mg/kg [4]: 48%

CC1OCC(Cc2ccc(F)cc2)C1(O)Cn1ccnc1 (stereo not drawn) [compound 2, 4-(4-fluorobenzyl)-3-hydroxy-3-(imidazol-1-ylmethyl)-2-methyl tetrahydrofuran]
LD50 at 168 h [1]: > 1000 mg/kg
responders at 100 mg/kg [2]: 55%
IC50 [3, 6]: 530 nM
inhibition in vivo at 25 mg/kg [4, 5]: 54%

OC1(Cn2cncn2)COCC1Cc1ccc(F)cc1 (stereo not drawn) [compound 21]
responders at 100 mg/kg [2]: 37%
IC50 [3, 6]: 4700 nM
inhibition in vivo at 25 mg/kg [4, 5]: 72%

OC1(Cn2ccnc2)COCC1Cc1ccc(F)cc1 (stereo not drawn) [compound 22]
responders at 100 mg/kg [2]: 46%
IC50 [3, 6]: 630 nM
inhibition in vivo at 25 mg/kg [4, 5]: 75%

CC1(C)OCC(Cc2ccc(F)cc2F)C1(O)Cn1cncn1 (stereo not drawn) [compound 41]
LD50 at 168 h [1]: > 1000 mg/kg
responders at 100 mg/kg [2]: 56%
IC50 [3]: 3000 nM
inhibition in vivo at 25 mg/kg [4, 5]: 48%

CC1(C)OCC(Cc2ccc(F)cc2F)C1(O)Cn1ccnc1 (stereo not drawn) [compound 42]
LD50 at 168 h [1]: > 1000 mg/kg
responders at 100 mg/kg [2]: 63%
IC50 [3]: 270 nM
inhibition in vivo at 25 mg/kg [4, 5]: 56%

CC1(C)OCC(Cc2ccc(Cl)cc2Cl)C1(O)Cn1cncn1 (stereo not drawn) [compound 47]
LD50 at 168 h [1]: > 1000 mg/kg
responders at 100 mg/kg [2]: 58%
IC50 [3]: 1000 nM
inhibition in vivo at 25 mg/kg [4, 5]: 55%

CC1(C)OCC(Cc2ccc(Cl)cc2Cl)C1(O)Cn1ccnc1 (stereo not drawn) [compound 48]
LD50 at 168 h [1]: > 1000 mg/kg
responders at 100 mg/kg [2]: 53%
IC50 [3]: 1500 nM
inhibition in vivo at 25 mg/kg [4, 5]: 70%
